Here are results for 56 compounds from patent US20130035329A1, “THERAPEUTICALLY ACTIVE COMPOSITIONS AND THEIR METHODS OF USE” (priority 2009, published 2013).

Each structure is given as a SMILES string.

By IC50 is commonly meant the concentration at which inhibition is half-maximal. Low values mean greater potency in that assay, high ones weaker potency in that assay.

This assay concerns the target IDH1 R132H (Homo sapiens, UniProt O75874, R132H). Nature of the assay: High Throughput Screening (HTS) for IDH1 R132H inhibitors (resazurin/NADPH fluorescence assay). Type of assay: biochemical. To be noted: IDH1m. How it is done: A compound described herein may be an inhibitor of IDH1m. […] B refers to an inhibitor of IDH1m with an IC50 between 1 μM and 50 μM. C refers to an inhibitor of IDH1m with an IC50 greater than 50 μM. D refers to a compound wherein an IC50 is not available.
Assays were conducted in a volume of 76 μl assay buffer (150 mM NaCl, 10 mM MgCl2, 20 mM Tris pH 7.5, 0.03% bovine serum albumin) as follows in a standard 384-well plate: To 25 ul of substrate mix (8 uM NADPH, 2 mM aKG), 1 μl of test compound was added in DMSO. The plate was centrifuged briefly, and then 25 μl of enzyme mix was added (0.2 μg/ml ICDH1 R132H) followed by a brief centrifugation and shake at 100 RPM. The reaction was incubated for 50 minutes at room temperature, then 25 μl of detection mix (30 μM resazurin, […]) was added and the mixture further incubated for 5 minutes at room temperature. The conversion of resazurin to resorufine was detected by fluorescent spectroscopy at Ex544 Em590 c/o 590.
In general terms: Resazurin is reduced to fluorescent resorufin, in cell work by metabolically active cells.

Where [1] appears, read: assay similar to Example 1, class symbols.

Sequence of IDH1 R132H (O75874 whole entry R132H): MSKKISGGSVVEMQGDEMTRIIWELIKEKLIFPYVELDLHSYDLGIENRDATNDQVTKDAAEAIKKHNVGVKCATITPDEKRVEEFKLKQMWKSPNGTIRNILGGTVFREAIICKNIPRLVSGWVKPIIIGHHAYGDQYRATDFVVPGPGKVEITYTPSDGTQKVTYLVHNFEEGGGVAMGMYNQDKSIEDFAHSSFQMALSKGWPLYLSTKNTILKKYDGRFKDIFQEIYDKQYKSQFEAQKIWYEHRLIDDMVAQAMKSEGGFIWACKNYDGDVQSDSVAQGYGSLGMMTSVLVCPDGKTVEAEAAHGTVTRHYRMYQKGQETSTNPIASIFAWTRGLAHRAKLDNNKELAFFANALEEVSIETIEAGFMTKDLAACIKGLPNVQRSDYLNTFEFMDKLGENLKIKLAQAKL

In turn, `CCCCc1ccc(NS(=O)(=O)c2ccc(C)c(C(=O)N3CCN(c4ccccc4Cl)CC3)c2)cc1` displayed an IC50 under setting [1] of less than 1 µM.

Under setting [1], `CCCCc1ccc(NS(=O)(=O)c2ccc(C)c(C(=O)N3CCN(c4ccccn4)CC3)c2)cc1` returned a concentration for half-maximal inhibition (IC50) of 1 to 50 µM.

In turn, `CCCCc1ccc(NS(=O)(=O)c2ccc(C)c(C(=O)N3CCN(c4cccc(C(F)(F)F)c4)CC3)c2)cc1` gave an IC50 under setting [1] of 1 to 50 µM. `CCCCc1ccc(NS(=O)(=O)c2ccc(C)c(C(=O)N3CCN(c4ccccc4CC)CC3)c2)cc1`: the IC50 under setting [1] was less than 1 µM. Under setting [1], `COc1ccc(NS(=O)(=O)c2cccc(C(=O)N3CCN(c4ccccc4OC)CC3)c2)cc1` had an IC50 greater than 50 µM. Regarding `COc1ccccc1N1CCN(C(=O)c2cc(S(=O)(=O)Nc3ccc(OCC4CC4)cc3)ccc2C)CC1`, the IC50 under setting [1] lay in the range of 1 to 50 µM. The same measure, in the same setting: under `CCCCc1ccc(NS(=O)(=O)c2ccc(C)c(C(=O)N3CCN(C(=O)c4ccccc4)CC3)c2)cc1` stands 1 to 50 µM; under `Cc1ccc(S(=O)(=O)Nc2ccc(Cl)cc2)cc1C(=O)N1CCN(c2ccccn2)CC1`, greater than 50 µM.

The compound `CCCCc1ccc(NS(=O)(=O)c2ccc(C)c(C(=O)N3CCN(c4c(C)cccc4C)CC3)c2)cc1` returned an IC50 under setting [1] of 1 to 50 µM. Consider `Cc1ccc(S(=O)(=O)Nc2ccccc2F)cc1C(=O)N1CCN(c2ccccn2)CC1`, for which the IC50 under setting [1] was greater than 50 µM.

As for `COc1ccccc1N1CCN(C(=O)c2cc(S(=O)(=O)Nc3ccccc3F)ccc2C)CC1`, the IC50 under setting [1] was greater than 50 µM. On the same count and under the same terms, under `COCOc1ccc(NS(=O)(=O)c2ccc(C)c(C(=O)N3CCN(c4ccccc4OC)CC3)c2)cc1` stands 1 to 50 µM. As for `CCCCc1ccc(NS(=O)(=O)c2ccc(C)c(C(=O)N3CCN(c4ccccc4OCCC)CC3)c2)cc1`, the IC50 under setting [1] fell in the range of 1 to 50 µM. Under setting [1], `CCCCc1ccc(NS(=O)(=O)c2ccc(C)c(C(=O)N3CCN(c4ccccc4F)CC3)c2)cc1` had an IC50 of 1 to 50 µM. On the same count and under the same terms, as for `Cc1cc(F)ccc1NS(=O)(=O)c1cccc(C(=O)N2CCN(c3ccccc3)CC2)c1`, the figure is greater than 50 µM; as for `CCCCc1ccc(NS(=O)(=O)c2ccc(C)c(C(=O)N3CCN(c4ccccc4)CC3)c2)cc1`, 1 to 50 µM. For `CCc1ccc(NS(=O)(=O)c2ccc(C)c(C(=O)N3CCN(c4ccccc4OC)CC3)c2)cc1`, the IC50 under setting [1] lay within 1 to 50 µM. As to `CCCCc1ccc(NS(=O)(=O)c2ccc(C)c(C(=O)N3CCN(C(=O)c4cscn4)CC3)c2)cc1`, the IC50 under setting [1] was in the range of 1 to 50 µM. Still for that read-out and setting: under `CC(C)(C)c1ccc(NS(=O)(=O)c2cccc(C(=O)N3CCN(c4ccccc4)CC3)c2)cc1` stands 1 to 50 µM. Still for that read-out and setting: as for `CCCCc1ccc(NS(=O)(=O)c2ccc(C)c(C(=O)N3CCN(c4ccc(OC)c(F)c4)CC3)c2)cc1`, the figure is 1 to 50 µM; as for `CCCCc1ccc(NS(=O)(=O)c2ccc(C)c(C(=O)N3CCN(CC(C)c4ccccc4)CC3)c2)cc1` (centres unmarked), 1 to 50 µM. `Cc1ccc(S(=O)(=O)Nc2ccc(C(C)C)cc2)cc1C(=O)N1CCN(c2ccccc2)CC1` showed a 50% inhibitory concentration (IC50) under setting [1] of 1 to 50 µM. On the same count and under the same terms, under `CCCCc1ccc(NS(=O)(=O)c2ccc(C)c(C(=O)N3CCN(c4ccccc4OCc4ccccc4)CC3)c2)cc1` stands 1 to 50 µM; under `COc1ccccc1NS(=O)(=O)c1cccc(C(=O)N2CCN(c3ccccc3OC)CC2)c1`, greater than 50 µM; under `Cc1cc(F)ccc1NS(=O)(=O)c1cccc(C(=O)N2CCN(c3ccccn3)CC2)c1`, greater than 50 µM. `CCCCc1ccc(OC(=O)Nc2ccc(C)c(C(=O)N3CCN(c4ccccc4OC)CC3)c2)cc1` yielded an IC50 under setting [1] greater than 50 µM. Under setting [1], `CCCCc1ccc(NS(=O)(=O)c2ccc(C)c(C(=O)N3CCN(C(=O)Cc4ccccc4)CC3)c2)cc1` displayed an IC50 of 1 to 50 µM. On the same count and under the same terms, as for `COc1ccccc1N1CCCN(C(=O)c2cccc(S(=O)(=O)Nc3ccc(C)cc3)c2)CC1`, the figure is greater than 50 µM. Still for that read-out and setting: under `CCCc1ccccc1NS(=O)(=O)c1cccc(C(=O)N2CCN(c3ccccc3)CC2)c1` stands 1 to 50 µM; under `CCCCc1ccc(NS(=O)(=O)c2ccc(C)c(C(=O)N3CCCN(c4ccccc4F)CC3)c2)cc1`, 1 to 50 µM; under `CCCCc1ccc(NS(=O)(=O)c2ccc(Br)c(C(=O)N3CCN(c4ccccc4OC)CC3)c2)cc1`, 1 to 50 µM. Under setting [1], `CCCCc1ccc(NS(=O)(=O)c2cccc(C(=O)N3CCN(c4ccccn4)CC3)c2)cc1` registered an IC50 of 1 to 50 µM. Under setting [1], `CCCCc1ccc(NS(=O)(=O)c2ccc(C)c(C(=O)N3CCN(c4ccc(F)cc4)CC3)c2)cc1` returned an IC50 of 1 to 50 µM. The same measure, in the same setting: as for `CCCCc1ccc(NS(=O)(=O)c2ccc(C)c(C(=O)N3CCN(CCc4ccccc4)CC3)c2)cc1`, the figure is 1 to 50 µM. Consider `Cc1ccc(NS(=O)(=O)c2cccc(C(=O)N3CCN(c4ccccc4)CC3)c2)cc1`, for which the IC50 under setting [1] is greater than 50 µM. The same measure, in the same setting: as for `CCCCc1ccc(NS(=O)(=O)c2ccc(C)c(C(=O)N3CCN(c4ccccc4C(C)C)CC3)c2)cc1`, the figure is 1 to 50 µM; as for `CCCCc1ccc(NS(=O)(=O)c2ccc(C)c(C(=O)N3CCN(c4ccnc(N(C)C)c4)CC3)c2)cc1`, 1 to 50 µM; as for `CCCCc1ccc(NS(=O)(=O)c2ccc(C)c(C(=O)N3CCN(c4ccccc4Oc4ccccc4)CC3)c2)cc1`, 1 to 50 µM. Same read-out and setting: under `CCCCc1ccc(NS(=O)(=O)c2ccc(C)c(C(=O)N3CCN(C(C)c4ccccc4)CC3)c2)cc1` (centres unmarked) stands 1 to 50 µM.

In turn, `COC(=O)C(C)Nc1ccc(NS(=O)(=O)c2ccc(C)c(C(=O)N3CCN(c4ccccc4OC)CC3)c2)cc1` (centres unmarked) came in with an IC50 under setting [1] of 1 to 50 µM.

`COc1ccc(NS(=O)(=O)c2ccc(C)c(C(=O)N3CCN(c4ccccc4)CC3)c2)cc1` returned an IC50 (number printed in Table 1 instead of a class symbol) of 51 µM.

`COc1ccc(NS(=O)(=O)c2cccc(C(=O)N3CCN(c4ccccc4)CC3)c2)cc1` gave an IC50 under setting [1] greater than 50 µM. The same measure, in the same setting: under `CCCCc1ccc(NS(=O)(=O)c2cccc(C(=O)N3CCN(c4ncc(C(F)(F)F)cc4Cl)CC3)c2)cc1` stands 1 to 50 µM; under `COCOc1ccc(NS(=O)(=O)c2ccc(C)c(C(=O)N3CCN(c4ccccc4C)CC3)c2)cc1`, 1 to 50 µM. Still for that read-out and setting: under `CCCCc1ccc(NS(=O)(=O)c2ccc(C)c(C(=O)N3CCN(c4ccccc4Br)CC3)c2)cc1` stands 1 to 50 µM; under `CCCCc1ccc(NS(=O)(=O)c2ccc(Cl)c(C(=O)N3CCN(C(C)=O)CC3)c2)cc1`, greater than 50 µM; under `CCCCc1ccc(NS(=O)(=O)c2cccc(C(=O)N3CCN(c4ccccc4OC)CC3)c2)c(C(=O)O)c1`, 1 to 50 µM. The compound `CCCCc1ccc(NS(=O)(=O)c2ccc(C)c(C(=O)N3CCN(Cc4cccc(C)c4)CC3)c2)cc1` came in with an IC50 under setting [1] of 1 to 50 µM.

`CCCCc1ccc(NS(=O)(=O)c2ccc(C)c(C(=O)N3CCN(c4ccccc4C)CC3)c2)cc1` showed an IC50 under setting [1] of less than 1 µM. `COc1ccccc1N1CCN(C(=O)c2cc(S(=O)(=O)Nc3ccc(OCc4cn(Cc5ccccc5)nn4)cc3)ccc2C)CC1` came in with a half-maximal inhibitory concentration (IC50) under setting [1] of 1 to 50 µM. The compound `COc1ccccc1N1CCCN(C(=O)c2cccc(S(=O)(=O)Nc3ccc(C(C)C)cc3)c2)CC1` came in with an IC50 under setting [1] of 1 to 50 µM. On the same count and under the same terms, as for `CCCOc1ccc(NS(=O)(=O)c2ccc(C)c(C(=O)N3CCN(c4ccccc4OC)CC3)c2)cc1`, the figure is 1 to 50 µM.

In turn, `COc1ccccc1N1CCN(C(=O)c2cc(S(=O)(=O)Nc3ccc(OCc4nnco4)cc3)ccc2C)CC1` showed an IC50 under setting [1] of 1 to 50 µM.

For `CCCCc1ccc(NS(=O)(=O)c2ccc(C)c(C(=O)N3CCN(c4ccccc4OC)CC3)c2)cc1`, the IC50 under setting [1] was less than 1 µM. Still for that read-out and setting: under `CCCCc1ccc(NS(=O)(=O)c2ccc(C)c(C(=O)N3CCN(c4c(Cl)cccc4Cl)CC3)c2)cc1` stands 1 to 50 µM; under `CCCCc1ccc(NS(=O)(=O)c2ccc(N3CCOCC3)c(C(=O)N3CCN(c4ccccc4OC)CC3)c2)cc1`, 1 to 50 µM.
